Experimental findings from patent US12310975B2, “Modulators of BCL6 proteolysis and associated methods of use” (Arvinas Operations, Inc., priority 2019, dated 2025) are described below.

Each structure is given as a SMILES string.

The assay deals with BCL6 (Homo sapiens (Human), UniProt P41182). In words: Immunofluorescence high content imaging of BCL6 degradation in T47D cells. As to conditions: for Dmax: T47D. The assay is classed as cell-based. In short, it runs like this:
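BCL6 loss was quantified by high-content imaging (10×, 4 fields/well) after PFA fixation and anti-BCL6/Alexa-488 staining with Hoechst nuclear and CellMask counterstains. Compounds were applied for 3 days to T47D breast cancer cells in RPMI-10% FBS, 11 points, 3-fold steps, top 0.1 or 1 μM.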

For orientation: IC50 means the midpoint of a concentration-inhibition curve. `CN1CC[C@@H](Oc2cc3cc(Nc4nc(N5CCC(CN6CCN(c7ccc8c(c7)C(=O)N(C7CCC(=O)NC7=O)C8=O)CC6)CC5)ncc4Cl)ccc3n(C)c2=O)C1=O` (stereo partly drawn) [compound 258, 5-(4-((1-(5-chloro-4-((1-methyl-3-(((R)-1-methyl-2-oxopyrrolidin-3-yl)oxy)-2-oxo-1,2-dihydroquinolin-6-yl)amino)pyrimidin-2-yl)piperidin-4-yl)methyl)piperazin-1-yl)-2-(2,6-dioxopiperidin-3-yl)isoindoline-1,3-dione] gave an IC50 not below 100 nM.
As a reminder, the Dmax is the greatest extent of degradation seen. Lower therefore signals shallow degradation. On to `CN1CC[C@H](Oc2cc3cc(Nc4nc(N5CCC(CN6CCN(c7ccc8c(c7)C(=O)N(C7CCC(=O)NC7=O)C8=O)CC6)CC5)ncc4Cl)ccc3n(C)c2=O)C1=O` (stereo partly drawn) [compound 259, 5-(4-((1-(5-chloro-4-((1-methyl-3-(((S)-1-methyl-2-oxopyrrolidin-3-yl)oxy)-2-oxo-1,2-dihydroquinolin-6-yl)amino)pyrimidin-2-yl)piperidin-4-yl)methyl)piperazin-1-yl)-2-(2,6-dioxopiperidin-3-yl)isoindoline-1,3-dione], for which the IC50 is not below 100 nM and the Dmax was less than 50%.
Take `CNC(=O)COc1cc2cc(Nc3nc(N4CCC(CN5CCN(c6cccc7c6C(=O)N(C6CCC(=O)NC6=O)C7=O)CC5)CC4)ncc3Cl)ccc2n(C)c1=O` (stereo not drawn) [compound 260, 2-((6-((5-chloro-2-(4-((4-(2-(2,6-dioxopiperidin-3-yl)-1,3-dioxoisoindolin-4-yl)piperazin-1-yl)methyl)piperidin-1-yl)pyrimidin-4-yl)amino)-1-methyl-2-oxo-1,2-dihydroquinolin-3-yl)oxy)-N-methylacetamide]: the IC50 lay within 10 to 50 nM and the Dmax was not below 70%.
In the same order, the values of `CNC(=O)CNc1cc2cc(Nc3nc(N4CCN(CC5CCN(c6ccc7c(c6)C(=O)N(C6CCC(=O)NC6=O)C7=O)CC5)CC4)ncc3Cl)ccc2n(C)c1=O` (stereo not drawn) [compound 262, 2-((6-((5-chloro-2-(4-((1-(2-(2,6-dioxopiperidin-3-yl)-1,3-dioxoisoindolin-5-yl)piperidin-4-yl)methyl)piperazin-1-yl)pyrimidin-4-yl)amino)-1-methyl-2-oxo-1,2-dihydroquinolin-3-yl)amino)-N-methylacetamide] are less than 10 nM and not below 70%.
On to `CNC(=O)COc1cc2cc(Nc3nc(N4CCC(OC5CCN(c6cccc7c6C(=O)N(C6CCC(=O)NC6=O)C7=O)CC5)CC4)ncc3Cl)ccc2n(C)c1=O` (stereo not drawn) [compound 264, 2-((6-((5-chloro-2-(4-((1-(2-(2,6-dioxopiperidin-3-yl)-1,3-dioxoisoindolin-4-yl)piperidin-4-yl)oxy)piperidin-1-yl)pyrimidin-4-yl)amino)-1-methyl-2-oxo-1,2-dihydroquinolin-3-yl)oxy)-N-methylacetamide], for which the IC50 is less than 10 nM and the Dmax was not below 70%.
In the same order, the values of `CONC(=O)COc1cc2cc(Nc3cc(N4CCN(C(C)(C)C5CCN(c6ccc7c(c6)C(=O)N(C6CCC(=O)NC6=O)C7=O)CC5)CC4)ncc3Cl)ccc2n(C)c1=O` (stereo not drawn) [compound 265, 2-((6-((5-chloro-2-(4-(2-(1-(2-(2,6-dioxopiperidin-3-yl)-1,3-dioxoisoindolin-5-yl)piperidin-4-yl)propan-2-yl)piperazin-1-yl)pyridin-4-yl)amino)-1-methyl-2-oxo-1,2-dihydroquinolin-3-yl)oxy)-N-methoxyacetamide] are 10 to 50 nM and 50 to 70%.
`CNC(=O)COc1cc2cc(Nc3nc(N4CCN(C(C)(C)C5CCN(c6cccc7c6C(=O)N(C6CCC(=O)NC6=O)C7=O)CC5)CC4)ncc3Cl)ccc2n(C)c1=O` (stereo not drawn) [compound 266, 2-((6-((5-chloro-2-(4-(2-(1-(2-(2,6-dioxopiperidin-3-yl)-1,3-dioxoisoindolin-4-yl)piperidin-4-yl)propan-2-yl)piperazin-1-yl)pyrimidin-4-yl)amino)-1-methyl-2-oxo-1,2-dihydroquinolin-3-yl)oxy)-N-methylacetamide] registered an IC50 of less than 10 nM and a Dmax not below 70%.
Compound `Cn1c(=O)c(-c2nnc[nH]2)cc2cc(Nc3nc(N4CCC(CN5CCN(c6ccc7c(c6)C(=O)N(C6CCC(=O)NC6=O)C7=O)CC5)CC4)ncc3Cl)ccc21` (stereo not drawn) [compound 282, 5-(4-{[1-(5-chloro-4-{[1-methyl-2-oxo-3-(4H-1,2,4-triazol-3-yl)-1,2-dihydroquinolin-6-yl]amino}pyrimidin-2-yl)piperidin-4-yl]methyl}piperazin-1-yl)-2-(2,6-dioxopiperidin-3-yl)-2,3-dihydro-1H-isoindole-1,3-dione] yielded an IC50 not below 100 nM.
On the same count and under the same terms, the figure for `CNC(=O)COc1cc2cc(Nc3nc(N4CCC(CN5CCC(n6cnc7c(C(=O)NC8CCC(=O)NC8=O)cccc76)CC5)CC4)ncc3Cl)ccc2n(C)c1=O` (stereo not drawn) [compound 283, 1-[1-({1-[5-chloro-4-({1-methyl-3-[(methylcarbamoyl)methoxy]-2-oxo-1,2-dihydroquinolin-6-yl}amino)pyrimidin-2-yl]piperidin-4-yl}methyl)piperidin-4-yl]-N-(2,6-dioxopiperidin-3-yl)-1H-1,3-benzodiazole-4-carboxamide] is not below 100 nM.
`CNC(=O)COc1cc2cc(Nc3nc(N4C[C@@H](C)N(CC5CCN(c6ccc(C(=O)NC7CCC(=O)NC7=O)c(F)c6)CC5)[C@@H](C)C4)ncc3Cl)ccc2n(C)c1=O` (stereo partly drawn) [compound 284, 4-(4-{[(2R,6S)-4-[5-chloro-4-({1-methyl-3-[(methylcarbamoyl)methoxy]-2-oxo-1,2-dihydroquinolin-6-yl}amino)pyrimidin-2-yl]-2,6-dimethylpiperazin-1-yl]methyl}piperidin-1-yl)-N-(2,6-dioxopiperidin-3-yl)-2-fluorobenzamide] yielded an IC50 of 10 to 50 nM and a Dmax of less than 50%.
Compound `Cc1nnc(-c2cc3cc(Nc4nc(N5CCN(C(C)(C)C6CCN(c7ccc8c(c7)C(=O)N(C7CCC(=O)NC7=O)C8=O)CC6)CC5)ncc4Cl)ccc3n(C)c2=O)o1` (stereo not drawn) [compound 285, 5-(4-{2-[4-(5-chloro-4-{[1-methyl-3-(5-methyl-1,3,4-oxadiazol-2-yl)-2-oxo-1,2-dihydroquinolin-6-yl]amino}pyrimidin-2-yl)piperazin-1-yl]propan-2-yl}piperidin-1-yl)-2-(2,6-dioxopiperidin-3-yl)-2,3-dihydro-1H-isoindole-1,3-dione] displayed an IC50 of 10 to 50 nM and a Dmax of less than 50%.
For `CNC(=O)COc1cc2cc(Nc3nc(N4CCC(CN5CCC(c6coc(C(=O)NC7CCC(=O)NC7=O)c6)CC5)CC4)ncc3Cl)ccc2n(C)c1=O` (stereo not drawn) [compound 286, 4-[1-({1-[5-chloro-4-({1-methyl-3-[(methylcarbamoyl)methoxy]-2-oxo-1,2-dihydroquinolin-6-yl}amino)pyrimidin-2-yl]piperidin-4-yl}methyl)piperidin-4-yl]-N-(2,6-dioxopiperidin-3-yl)furan-2-carboxamide] the same measures were 50 to 100 nM and less than 50%.
With `CNC(=O)CCC1Oc2cc(Nc3nc(N4CCN(C(C)(C)C5CCN(c6ccc7c(c6)C(=O)N(C6CCC(=O)NC6=O)C7=O)CC5)CC4)ncc3Cl)ccc2N(C)C1=O` (stereo not drawn) [compound 287, 3-[7-({5-chloro-2-[4-(2-{1-[2-(2,6-dioxopiperidin-3-yl)-1,3-dioxo-2,3-dihydro-1H-isoindol-5-yl]piperidin-4-yl}propan-2-yl)piperazin-1-yl]pyrimidin-4-yl}amino)-4-methyl-3-oxo-3,4-dihydro-2H-1,4-benzoxazin-2-yl]-N-methylpropanamide], the IC50 was not below 100 nM.
`CNC(=O)COc1cc2cc(Nc3nc(N4CCC(CN5[C@H](C)CN(c6ccc(C(=O)NC7CCC(=O)NC7=O)c(F)c6)C[C@@H]5C)CC4)ncc3Cl)ccc2n(C)c1=O` (stereo partly drawn) [compound 288, 4-[(3R,5S)-4-({1-[5-chloro-4-({1-methyl-3-[(methylcarbamoyl)methoxy]-2-oxo-1,2-dihydroquinolin-6-yl}amino)pyrimidin-2-yl]piperidin-4-yl}methyl)-3,5-dimethylpiperazin-1-yl]-N-(2,6-dioxopiperidin-3-yl)-2-fluorobenzamide] gave an IC50 of 50 to 100 nM and a Dmax of 50 to 70%.
In the same order, the values of `CNC(=O)COc1cc2cc(Nc3nc(N4CCC(CN5CCC(c6ccc7c(c6)C(=O)N(C6CCC(=O)NC6=O)C7=O)CC5)CC4)ncc3Cl)ccc2n(C)c1=O` (stereo not drawn) [compound 289, 2-{[6-({5-chloro-2-[4-({4-[2-(2,6-dioxopiperidin-3-yl)-1,3-dioxo-2,3-dihydro-1H-isoindol-5-yl]piperidin-1-yl}methyl)piperidin-1-yl]pyrimidin-4-yl}amino)-1-methyl-2-oxo-1,2-dihydroquinolin-3-yl]oxy}-N-methylacetamide] are 10 to 50 nM and not below 70%.
For `CNC(=O)COc1cc2cc(Nc3nc(N4CCN(C(C)(C)C5CCN(c6cccc(C(=O)NC7CCC(=O)NC7=O)c6F)CC5)CC4)ncc3Cl)ccc2n(C)c1=O` (stereo not drawn) [compound 291, 3-[4-(2-{4-[5-chloro-4-({1-methyl-3-[(methylcarbamoyl)methoxy]-2-oxo-1,2-dihydroquinolin-6-yl}amino)pyrimidin-2-yl]piperazin-1-yl}propan-2-yl)piperidin-1-yl]-N-(2,6-dioxopiperidin-3-yl)-2-fluorobenzamide] the same measures were 10 to 50 nM and not below 70%.
In the same order, the values of `CCn1c(=O)c(OCC(=O)NC)cc2cc(Nc3nc(N4CCC(OC5CCN(c6cccc7c6C(=O)N(C6CCC(=O)NC6=O)C7=O)CC5)CC4)ncc3Cl)ccc21` (stereo not drawn) [compound 292, 2-{[6-({5-chloro-2-[4-({1-[2-(2,6-dioxopiperidin-3-yl)-1,3-dioxo-2,3-dihydro-1H-isoindol-4-yl]piperidin-4-yl}oxy)piperidin-1-yl]pyrimidin-4-yl}amino)-1-ethyl-2-oxo-1,2-dihydroquinolin-3-yl]oxy}-N-methylacetamide] are less than 10 nM and 50 to 70%.
